# According to patent US6433178B1, “3-alkyl-3-phenyl-piperidines” (Warner-Lambert Company, priority 1996, dated 2002):
# Key:
# [1] = Pharmacokinetics in male Wistar rats after an oral dose; assay type: in vivo; details: oral dose of ~20 mg/kg, solution in PEG 400/Ethanol/Water (40/15/45); for AUC / Cmax / Tmax / half-life: rat, plasma; for AUC: read-out: AUC(0-tldc) (area under the plasma concentration-time curve from zero time to the last detectable concentration); for Cmax: read-out: Cmax (the highest plasma concentration); for Tmax: read-out: tmax (time to reach the highest plasma concentration); for half-life: read-out: t½ (terminal elimination half-life) (converted)
# [2] = target: T1, NK3 receptors (Homo sapiens, UniProt P29371); experiment: Inhibition of agonist-induced phosphatidylinositol turnover (inositol phosphates accumulation) in transfected CHO cells; assay type: cell-based; details: CHO cells expressing NK3 receptors; 1 μM of tested compounds; pKB=log(dose ratio−1)−log[B]
# T1 construct: expressed in transfected cells; host or cells: CHO cells
# T1 sequence (P29371 1-465): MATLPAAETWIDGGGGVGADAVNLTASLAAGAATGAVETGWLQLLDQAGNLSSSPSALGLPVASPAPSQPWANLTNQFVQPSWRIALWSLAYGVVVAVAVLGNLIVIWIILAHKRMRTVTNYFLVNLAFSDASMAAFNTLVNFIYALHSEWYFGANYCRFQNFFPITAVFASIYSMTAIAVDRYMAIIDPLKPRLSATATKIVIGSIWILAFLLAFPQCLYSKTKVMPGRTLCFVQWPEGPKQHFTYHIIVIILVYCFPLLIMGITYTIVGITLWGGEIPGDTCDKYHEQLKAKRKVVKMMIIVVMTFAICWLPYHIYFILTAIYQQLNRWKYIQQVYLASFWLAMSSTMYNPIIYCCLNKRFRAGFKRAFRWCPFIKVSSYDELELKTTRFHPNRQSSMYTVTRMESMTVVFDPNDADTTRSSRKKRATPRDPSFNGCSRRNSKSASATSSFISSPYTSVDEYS
# Method: 2. Inhibition of Phosphatidylinositol Turnover in Transfected CHO Cells
# The inhibitory effects of these compounds on agonist-induced phosphatidylinositol turnover was estimated by measuring their effects on inositol phosphates (IP) accumulation in CHO cells expressing NK3 receptors. Briefly, cells (10,000/well) were seeded in 96-well cell culture plates 24 hours before changing medium to EMEM/F-12 (w/Earle's salt, w/glutamine; GIBCOL) containing 10 μCi/mL [^3H]inositol. After overnight incubation with [^3H]inositol, medium was removed and cells were washed twice with assay buffer (MEM with 10 mM LiCl, 20 mM HEPES, and 1 mg/mL BSA). Cells were then incubated with various concentrations of agonists with or without 1 μM of tested compounds for 1 hour. Reactions were stopped by two washes with ice-cold PBS followed by the addition of 0.1 mL ice-cold 5% TCA to each well. The TCA extract was applied to a […] column containing AG 1-X8 resin (Bio-Rad) and washed three times with 5 mM myo-inositol. Inositol phosphates (IP) was eluted with 1 M ammonium formate/0.1 M formic acid. Radioactivity was determined by liquid scintillation counting. Data were analyzed with nonlinear curve fitting using KaleidaGraph software package (PCS Inc, Reading, Pa.). The pKB values in Table 2 were calculated according to the formula: pKB=log(dose ratio−1)−log[B].
# [3] = target: T1, NK3 receptors; experiment: Receptor binding in transfected CHO cells (125I-labeled ligand displacement), NK3; details: CHO cells expressing human NK3; 0.2 nM 125I-labeled ligand; 1 hour at room temperature
# Method: (§1) 1. Receptor Binding in Transfected CHO Cells
# (§2) CHO cells expressing either human NK1 or NK3 receptors were cultured in Ham's F-12 Nutrient Mixture supplemented with 10% fetal call serum and 1% penicillin/streptomycin. Cells were seeded to 96-well Wallac (Gaithersburg, Md.) rigid crosstalk corrected cell culture plate 1 day before experiment. On the day of each experiment, cells were washed twice with phosphate buffered saline (PBS) and appropriate agonists or antagonists were added and incubated in 0.2 nM ^125I-labeled ligand in PBS containing 0.4 mg/mL BSA, 0.08 mg/mL bacitracin, 0.004 mg/mL chymostatin, 0.004 mg/mL leupeptin, 1 μM thiorphan, 25 μM phosphoramidon, and 2 mM MnCl2. The cells were incubated for 1 hour at room temperature and the reactions terminated by two washes with ice cold PBS. Fifty microliters of 2% SDS followed by 175 μL of Ready Gel (Beckman) were added to each well. Plates were vortexed, and the radioactivity was quantified in a Wallac 1450 microbeta scintillation counter. Nonspecific binding was determined in the presence of 1 μM unlabeled corresponding ligand. Receptor binding data were analyzed with nonlinear curve fitting using KaleidaGraph software package (PCS Inc., Reading, Pa.). IC50 values were determined using a modified Hill equation, [formula]
# (§3) where cold ligand represents unlabeled ligand, L represents the concentration of unlabeled ligand, n the Hill coefficient, and IC50 the concentration of unlabeled ligand that causes 50% inhibition of the total specific binding of 0.2 nM radiolabeled ligand.
# [4] = target: T2, human NK1 receptors (Homo sapiens, UniProt P25103); experiment: Receptor binding in transfected CHO cells (125I-labeled ligand displacement), NK1; details: CHO cells expressing human NK1; 0.2 nM 125I-labeled ligand; 1 hour at room temperature
# T2 construct: expressed in transfected cells; host or cells: CHO cells
# Method: as §1, §2, §3
# T2 sequence (P25103 whole entry): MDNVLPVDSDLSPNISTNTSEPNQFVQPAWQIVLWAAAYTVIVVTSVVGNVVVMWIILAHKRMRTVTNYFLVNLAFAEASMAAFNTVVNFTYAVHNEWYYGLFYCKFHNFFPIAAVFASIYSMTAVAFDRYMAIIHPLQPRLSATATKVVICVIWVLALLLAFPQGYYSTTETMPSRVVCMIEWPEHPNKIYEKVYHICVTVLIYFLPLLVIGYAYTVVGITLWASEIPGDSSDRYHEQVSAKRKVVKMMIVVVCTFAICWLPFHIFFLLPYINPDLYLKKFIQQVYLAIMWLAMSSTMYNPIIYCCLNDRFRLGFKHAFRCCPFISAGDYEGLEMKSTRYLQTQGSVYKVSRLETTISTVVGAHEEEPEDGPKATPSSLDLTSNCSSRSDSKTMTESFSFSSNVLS
SMILES,AUC ([1]; mean (SD)),Cmax ([1]; mean (SD)),Tmax ([1]; mean),half-life ([1]; mean),pKB [2],tmax (time to reach the highest plasma concentration) ([1]; mean),AUC(0-tldc) (area under the plasma concentration-time curve from zero time to the last detectable concentration) ([1]; mean (SD)),Cmax (the highest plasma concentration) ([1]; mean (SD)),IC50 [3],IC50 [4],Kb [2]
"CC(=O)N(C)C1(c2ccccc2)CCN(CCC[C@]2(c3ccc(Cl)c(Cl)c3)CCCN(C(=O)c3ccccc3)C2)CC1 [SR 142801, reference compound]",703 ng·h/mL,133 ng/mL,1.8 h,5.3 h,–,–,–,–,–,–,–
Cl.O=C(c1ccccc1)N1CCCC(CCCN2CCC(O)(CS(=O)(=O)c3ccccc3)CC2)(c2ccc(Cl)c(Cl)c2)C1 (centres unmarked) [Compound 20-1],–,–,–,–,8.2 ± 0.4,1.3 h,366 (140) ng · hr/mL,74.0 (12.9) ng/mL,–,–,–
"Cl.O=C(c1ccccc1)N1CCCC(CCCN2CCC(O)(c3ccccc3)CC2)(c2ccc(Cl)c(Cl)c2)C1 (centres unmarked) [Compound 20-2, {3-(3,4-Dichlorophenyl)-3-[3-(4-hydroxy-4-phenyl-piperidin-1-yl)-propyl]-piperidin-1-yl}-phenyl-methanone monohydrochloride]",716 ng·h/mL,125 ng/mL,1.3 h,7.4 h,–,–,–,–,0.0062 ± 0.0006 µM,> 1 µM,0.00501 µM
"Cl.O=C(c1ccccc1)N1CCCC(CCCN2CCC(O)(CS(=O)(=O)c3ccccc3)CC2)(c2ccc(Cl)c(Cl)c2)C1 (centres unmarked) [Compound 20-1, {3-[3-(4-Benzensulfonylmethyl-4-hydroxy-piperidin-1-yl]-3-(3,4-dichlorophenyl)-piperidin-1-yl}-phenyl-methanone monohydrochloride]",–,–,–,–,–,–,–,–,0.0059 ± 0.0004 µM,> 1 µM,–
"Cl.O=C(c1ccccc1)N1CCCC(CCCN2CCC(c3ccccc3)CC2)(c2ccc(Cl)c(Cl)c2)C1 (centres unmarked) [Compound 20-3, {3-(3,4-Dichlorophenyl)-3-[3-(4-phenyl-piperidin-1-yl)-propyl]-piperidin-1-yl}-phenyl-methanone monohydrochloride]",572 ng·h/mL,107 ng/mL,1.8 h,–,–,–,–,–,0.0178 ± 0.0015 µM,0.694 ± 0.089 µM,0.0126 µM
